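Dose response: 5 concentrations. Exposure: 48 h. Format: 96-well plates. Endpoint: linear interpolation; highest concentration if not reached. At the TGI there is no net growth.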
Experiments:
Test in all cases: DTP human tumour cell line panel, 48 h
[1] = test system: A498 renal
[2] = test system: MALME-3M melanoma
[3] = test system: NCI-H23 lung
[4] = test system: NCI-H522 lung
[5] = test system: SF-539 CNS
[6] = test system: SK-MEL-28 melanoma
[7] = test system: UACC-62 melanoma

Work on CC(=O)NC1C(OCc2ccccc2)OC(CO)C(O)C1OC(C)C(=O)N[C@@H](C)C(=O)N[C@H](CCC(=O)OCCNc1c2ccccc2nc2cccc([N+](=O)[O-])c12)C(N)=O (stereo not given in full) yielded a TGI [1] of 0.0199 µM, a TGI [2] of 0.00356 µM and a TGI [3] of 0.00545 µM. The TGI [4] was 0.00669 µM, the TGI [5] was 0.0161 µM and the TGI [6] was 0.0118 µM. The TGI [7] was 0.00203 µM.
For Cn1c(=O)c(NC(=O)C(Cl)(Cl)Cl)nc2ccccc21, the TGI [1] was greater than 100 µM, the TGI [2] was greater than 100 µM and the TGI [3] was greater than 100 µM. For the same compound, the TGI [4] was greater than 100 µM, the TGI [5] was greater than 100 µM and the TGI [6] was greater than 100 µM. The TGI [7] was greater than 100 µM.
For Nc1c(O)cc(N=C2C(=O)C=CC=C2C(=O)O)c(O)c1C(=O)O, the TGI [1] was greater than 100 µM, the TGI [2] was greater than 57.4 µM and the TGI [3] was greater than 100 µM. For the same compound, the TGI [4] was greater than 100 µM, the TGI [5] was greater than 100 µM and the TGI [6] was greater than 41.3 µM. The TGI [7] was greater than 100 µM.
CCOc1ccc2c(c1)[n+]([O-])c(-c1ccc(Br)cc1)c(N)[n+]2[O-] was tested, and the TGI [1] was greater than 100 µM, the TGI [2] was greater than 100 µM and the TGI [3] was 70.8 µM. It also gave a TGI [4] of 33.7 µM, a TGI [5] greater than 100 µM and a TGI [6] greater than 100 µM. It also gave a TGI [7] greater than 100 µM.
In the case of C[N+](C)(C)CC1CCC/C1=N/O (stereo not given), the TGI [1] is reported as greater than 100 µM, the TGI [2] is reported as greater than 100 µM and the TGI [3] is reported as greater than 100 µM. The TGI [4] was greater than 100 µM, the TGI [5] was greater than 100 µM and the TGI [6] was greater than 100 µM. It also gave a TGI [7] greater than 100 µM.
C#CC[N+](C)(CC#C)CC#C was tested, and the TGI [2] was greater than 100 µM, the TGI [3] was greater than 100 µM and the TGI [4] was greater than 100 µM. The TGI [6] was greater than 100 µM and the TGI [7] was greater than 100 µM.
Work on COC(=O)C1=C(c2ccc(OC)c(OC)c2)OC(c2cc(OC)c(OC)c(OC)c2)C1 (stereo not given) yielded a TGI [1] of 63 µM, a TGI [2] greater than 100 µM and a TGI [3] greater than 100 µM. The TGI [5] was greater than 100 µM and the TGI [6] was greater than 100 µM.
For COC(=O)/C(=N/Nc1cccc(Cl)c1)C(C(=O)C(=O)Nc1cccc(Cl)c1C)c1nc2ccccc2nc1C (stereo not given), the TGI [1] was greater than 100 µM, the TGI [2] was greater than 100 µM and the TGI [3] was greater than 100 µM. For the same compound, the TGI [4] was greater than 100 µM, the TGI [5] was greater than 100 µM and the TGI [6] was greater than 100 µM. It also gave a TGI [7] greater than 100 µM.
For CN(C)c1nnnn1-c1c(N)n(C)c(=O)n(C)c1=O, the TGI [1] was greater than 100 µM, the TGI [2] was greater than 100 µM and the TGI [3] was greater than 100 µM. It also gave a TGI [4] greater than 100 µM, a TGI [5] greater than 100 µM and a TGI [6] greater than 100 µM. For the same compound, the TGI [7] was greater than 100 µM.
Work on Cc1noc2c1C(=O)CCC2 yielded a TGI [2] greater than 100 µM, a TGI [4] greater than 100 µM and a TGI [5] greater than 100 µM. For the same compound, the TGI [6] was greater than 100 µM and the TGI [7] was greater than 100 µM.
In the case of CS(=O)(=O)NNS(=O)(=O)c1ccccc1, the TGI [1] is reported as greater than 100 µM, the TGI [2] is reported as greater than 100 µM and the TGI [3] is reported as greater than 100 µM. The TGI [4] was greater than 100 µM, the TGI [5] was greater than 100 µM and the TGI [7] was greater than 100 µM.
Compound COC(=O)CCC1CCc2c(OC)ccc(OC)c2C1=O (stereo not given) has a TGI [2] greater than 100 µM, a TGI [3] greater than 100 µM and a TGI [4] greater than 100 µM. For the same compound, the TGI [5] was greater than 100 µM, the TGI [6] was greater than 100 µM and the TGI [7] was greater than 100 µM.
CN=C(NC(=S)N(C)C)N(C)C was tested, and the TGI [1] was greater than 100 µM, the TGI [2] was greater than 100 µM and the TGI [3] was greater than 100 µM. It also gave a TGI [4] greater than 100 µM, a TGI [5] greater than 100 µM and a TGI [6] greater than 100 µM. It also gave a TGI [7] greater than 100 µM.
Cc1nnc2c3nnc(C)n3c3ccccc3n12 was tested, and the TGI [1] was greater than 100 µM, the TGI [2] was greater than 100 µM and the TGI [3] was greater than 100 µM. For the same compound, the TGI [4] was greater than 100 µM, the TGI [5] was greater than 100 µM and the TGI [6] was greater than 100 µM. The TGI [7] was greater than 100 µM.
In the case of N#CC1CCCCOCCOCCOCCOCCOCCCCCC1=O (stereo not given), the TGI [1] is reported as greater than 100 µM, the TGI [2] is reported as greater than 100 µM and the TGI [3] is reported as greater than 100 µM. For the same compound, the TGI [4] was greater than 100 µM, the TGI [6] was greater than 100 µM and the TGI [7] was greater than 100 µM.
Work on Cc1cc(-c2ccccc2)nc(Nc2nc3ccccc3o2)n1 yielded a TGI [1] greater than 100 µM, a TGI [2] greater than 100 µM and a TGI [3] greater than 100 µM. For the same compound, the TGI [4] was greater than 100 µM, the TGI [5] was greater than 100 µM and the TGI [6] was greater than 100 µM. It also gave a TGI [7] greater than 100 µM.
O=[N+]([O-])c1ccc(Cl)c(C2CC(c3cccc4ccccc34)=Nc3ccccc3S2)c1 (stereo not given) gave a TGI [1] greater than 78.9 µM, a TGI [2] greater than 100 µM and a TGI [3] of 20.8 µM. It also gave a TGI [4] of 43.9 µM, a TGI [5] of 49.3 µM and a TGI [6] greater than 84.2 µM. The TGI [7] was 59 µM.
Cc1ccc(NC(=O)C2C(=O)N(c3ccc(C)c(C)c3)C(=O)/C2=N\NC(N)=O)cc1C (stereo not given) showed a TGI [1] greater than 100 µM, a TGI [2] greater than 100 µM and a TGI [3] greater than 100 µM. The TGI [4] was greater than 100 µM, the TGI [5] was greater than 100 µM and the TGI [6] was greater than 100 µM. It also gave a TGI [7] greater than 100 µM.
Work on CCCCCCCCCCCCCCCCNCCCN(C)CCCN yielded a TGI [1] of 34 µM, a TGI [3] of 34.1 µM and a TGI [4] of 32.3 µM. It also gave a TGI [5] of 34.5 µM, a TGI [6] of 26.6 µM and a TGI [7] of 33.2 µM.
O=[N+]([O-])c1ccc(-c2noc(-c3ccc(Cl)cc3)c2C2=NCCN2)cc1 showed a TGI [2] greater than 100 µM, a TGI [4] greater than 100 µM and a TGI [5] greater than 100 µM. For the same compound, the TGI [6] was greater than 100 µM and the TGI [7] was greater than 100 µM.
Compound O=C(CCC(=O)Nc1ccc(Cl)c(Cl)c1)CC(=O)c1ccc(F)cc1 has a TGI [2] greater than 100 µM, a TGI [3] greater than 100 µM and a TGI [5] greater than 100 µM. For the same compound, the TGI [6] was greater than 100 µM and the TGI [7] was greater than 100 µM.
Work on O=C(CSc1ncn[nH]1)C[P+](c1ccccc1)(c1ccccc1)c1ccccc1 yielded a TGI [2] greater than 100 µM, a TGI [3] greater than 100 µM and a TGI [4] of 43.2 µM. The TGI [5] was greater than 100 µM, the TGI [6] was greater than 100 µM and the TGI [7] was greater than 100 µM.
Compound O=S(=O)(O)c1ccc(N=Nc2nc(C(F)(F)F)c(C(F)(F)F)[nH]2)cc1 has a TGI [2] greater than 100 µM, a TGI [3] of 68.7 µM and a TGI [5] of 65.9 µM. It also gave a TGI [6] of 36.2 µM and a TGI [7] of 72.2 µM.
CN(C)C(=Nc1nc(=[N+](C)C)ss1)N(C)C was tested, and the TGI [1] was greater than 100 µM, the TGI [3] was greater than 100 µM and the TGI [4] was greater than 100 µM. For the same compound, the TGI [5] was greater than 100 µM, the TGI [6] was greater than 100 µM and the TGI [7] was greater than 100 µM.
